Reference: patent US6147078A, “Pyrazinone thrombin inhibitors” (Merck & Co., Inc., priority 1999, dated 2000)

Experiments:
[1] = Metabolite identification in urine of male, bile duct-cannulated rats after intravenous dosing; format: in vivo, rat; settings: carbon 14 labeled, intravenous 20 mg/kg in saline, urine collected over 24 hours
Method: Purification of 3-(2-Phenethyleneamino)-6-hydroxymethyl-1-(2-methyl-6-amino-3-methylenecarboxamidomethyl)pyrazin-2-one from male, bile duct-cannulated rats.
(§1) Rats were dosed intravenously with carbon 14 labeled [drawing 16] at 20 mg/kg in saline at 1 mL/kg. Bile and urine were collected periodically over 24 hours. Aliquots of these were analyzed for total radioactivity. Urine was also fractionated by HPLC using Zorbax XDB-C8 column eluted with 0.1% trifluoroacetic acid-water and acetonitrile gradient, and the fractions analyzed by mass spectrometry.

[2] = tested on: thrombin; experiment: Bioassay of HPLC urine fractions for inhibitory effect on thrombin activity; format: biochemical; settings: urine HPLC fraction from rats, evaporated to dryness
Method: as §1
In another procedure, the urine was fractionated by HPLC. An aliquot of the fractions was assayed for total radioactivity, and the remaining volume was evaporated to dryness, under nitrogen, and bioassayed for inhibitory effect on the thrombin activity.

| SMILES | metabolite in urine (site of hydroxylation) [1] | inhibitory effect on the thrombin activity [2] |
| --- | --- | --- |
| Cc1nc(N)ccc1CNC(=O)Cn1c(C)cnc(NCCc2ccccc2)c1=O | hydroxylation on the methylpyrazinone moiety |  |
| Cc1nc(N)ccc1CNC(=O)Cn1c(CO)cnc(NCCc2ccccc2)c1=O [6-HYDROXYMETHYL-3-(2-PHENETHYLAMINO )-1-(2-AMINO-6-METHYL-5-METHYLCARBOXAMIDOMETHYLPYRIDINYL)-PYRAZINONE] |  | significant inhibitory activity |
